Measurements reported in US6683162B2, “Targeted alpha particle therapy using actinium-255 conjugates” (Sloan Kettering Institute of Cancer Research, priority 2000, dated 2004).

Tests used:
[1] = tested on: antigen positive cells (HL60); assay: Cell based immunoreactivity assay, antigen positive cells; assay type: binding, human; conditions: HL60, antigen excess, on ice
Method: (§1) A cell based immunoreactivity assay (binding of labeled antibody to antigen excess) was used to determine the percentage of HuM195 that retained its immunoreactivity after conjugation and purification. The assay was conducted with antigen positive cells (HL60, available from American Tissue Culture Collection [ATCC]) and antigen negative cells (Daudi, ATCC).
(§2) The cells were centrifuged, the supernatant removed and the cells resuspended to a density of 10^8 cells/ml in 2% w/v bovine serum albumin in phosphate buffered saline, pH 7.2 (PBS). Aliquots of cell suspension ([…]) were transferred to microcentrifuge tubes placed on ice to which purified ^225Ac-HuM195-DOTA (3 ng) was added. The cell suspensions were incubated for 30 min, centrifuged and the supernatant containing any unbound ^225Ac-HuM195-DOTA was transferred to a second microcentrifuge tube of cell suspension. The second tube was incubated on ice for 30 min. The first cell pellets were washed with PBS and the cells and washes saved for γ emission counting. The second set of cell suspensions were centrifuged, the supernatant removed and the pellets were washed with PBS. The set of supernate, cell pellets and washes were saved for counting. The percentage of radioactivity that was associated with the cells was then determined.

[2] = tested on: human HL60 leukemia cells; assay: In vitro cytotoxicity (LD50), HL60, tritiated thymidine incorporation; assay type: cell-based
Method: The potency and specificity of 225Ac-HuM195-DOTA was then evaluated in-vitro as a function of specific activity and activity concentration (FIG. 6). A suspension of HL60 cells were washed twice with complete media and then dispensed into a 96 well cell culture plate in complete media supplemented with 2% human serum. The volume was 100 μl and the cells were at a density of 5×10^5 cells/ml. Next a serial dilultion of purified ^225Ac-HuM195-DOTA was added to the wells. The diluent was complete media and volume added was 100 μl. The starting activity was 10 nCi/ml, which was diluted 5-fold for each subsequent tube. […] The cells were incubated for 2 days at 37° C., following which tritiated thymidine was added (0.5 pC, in 50 il complete media/well). The cells were incubated at 37° C. for an additional 5 h, then harvested using a Combi Cell Harvestor (Skatron Instruments). Cell viability was determined by analyzing the degree of tritiated thymidine incorporated into the DNA of the treated cells relative to control cells.
The potency and specificity of [225Ac]IgG for killing single cancer cells is determined using 5E4 cells in 0.2 mL per well in 96 well plates. Serial dilutions of [225Ac]IgG are added (triplicate) to the cells to yield final activity in the wells ranging from 74 kBl/mL to 37E-6 kB q/mL. Non-specific killing is measured after target cells are blocked with a 100-10000-fold excess of unlabeled IgG before plating and subsequent addition of [225Ac]IgG.

Daudi lymphoma cells = assay: In vivo efficacy against disseminated Daudi lymphoma; parameters: species or system mouse; conditions: irrelevant control, day 1
Method: Daudi lymphoma cells are disseminated into 8-12 week old female Scid mice via an intravenous (i.v.) injection of 5E6 Daudi tumor cells in the tail vein; mice experience a 100% tumor take rate in the model (20). In this lymphoma therapy experiment mice are treated 1 day post-tumor dissemination via intravenous injection. Animals are monitored for signs of illness and hind leg paralysis or inability to breathe or ambulate at which time they are sacrificed.
In the first experiment with this disseminated model, mice are treated 1 day post-tumor dissemination with a single dose of labeled specific [225Ac]B4 at three different dose levels, irrelevant control [225Ac]HuM195 at two dose levels, or a mass of unlabeled B4 matching the antibody mass dose administered in the highest dose level radiolabeled groups. Control groups receiving the irrelevant [225Ac]HuM195 have median survival times from xenograft of 43 days and 36 days. Mice receiving 0.003 mg unlabeled B4 per mouse have a median survival time of 57 days from xenograft. The mice receiving a single injection of [225Ac]B4 show dose-related increases in median survival times from xenograft to 165, 137 and 99 days, respectively. The dose response of [225Ac]B4 is significant with P=0.05. […]

[3] = Toxicity of [225Ac]DOTA-HuM195 i.v. in cynamologous monkeys; assay type: in vivo, cynamologous monkey; conditions: 9 months out
Method: Two male cynamologous monkeys (3-5 kg) were injected i.v. 9 months ago with an initial 0.002-0.005 mCi dose of [225Ac]DOTA-HuM195 per monkey and then 6 weeks later with a 0.017-0.020 mCi dose of [225Ac]DOTA-HuM195. Animals are followed by serial blood sampling and observation of activity and appearance as a function of time.

[4] = tested on: antigen negative cells (Daudi); assay: Cell based immunoreactivity assay, antigen negative cells; assay type: binding; conditions: on ice
Method: as §1, §2

HL60 cells = assay: In vitro internalization of 225Ac-HuM195-DOTA; assay type: cell-based, human; conditions: 37° C., in 5 hours
Method: The internalizing ability of the purified ^225Ac-HuM195-DOTA was tested with HL60 cells. The cells were washed twice with complete media and then incubated for 20 min on ice in complete media containing 2% rabbit serum. The cells were washed twice with ice cold complete media and then resuspended in 5 ml of complete media at a density of 5×10^6 cells/ml. After placing the cell suspension on ice purified ^225Ac-HuM195-DOTA (15 ng) was added. After mixing a sample of the sample of the cell suspension as taken and the rest of the cell suspension was placed into a 37° C. incubator. At various time points samples of the cell suspensions were taken. The samples were centrifuged, the supernatant removed and the cells washed twice with ice cold PBS. Stripping buffer (50 mM glycine, 150 mM NaCl, pH 2.8) was added to the cells and allowed to incubate for 10 min at room temperature. The cells were centrifuged and the supernatant drawn off and saved for counting. The cell pellet was washed once with PBS and both the cell pellet and wash were saved for counting.

225Ac-HuM195-DOTA
activity associated with the cells (immunoreactivity) [1]: 74%
LD50 ([2]; HL60 (non-specific), excess unlabeled antibody, S.A. 0.089 GBq/g): 185.0 Bq/mL
LD50 ([2]; HL60 (specific), S.A. 8.9 GBq/g): 0.3 Bq/mL
LD50 ([2]; HL60, Ac-225 construct, S.A. 0.24 Ci/g): 8 pCi/mL
LD50 ([2]; HL60, specific activity 0.094 nCi/ng, 2 days at 37° C. then tritiated thymidine 5 h): about 1.3 nCi/ml
median survival time from xenograft (Daudi lymphoma cells; first-named of two dose levels (5550 Bq per FIG. 8A, order assumed)): 43 days
median survival time from xenograft (Daudi lymphoma cells; second-named of two dose levels (1850 Bq per FIG. 8A, order assumed)): 36 days
evidence of toxicity ([3]; i.v. 0.002-0.005 mCi then 0.017-0.020 mCi 6 weeks later): no evidence of toxicity
hepatic, renal and hematopoietic function ([3]; i.v.): did not change
activity retained by the cells (immunoreactivity) [4]: 2%
activity internalized (HL60 cells): 50%
